Results published in patent publication US20200289441A1, “METHODS FOR PROMOTING HAIR GROWTH USING VALPROIC ACID” (FOLLICA, INC., priority 2017, published 2020).

What was measured:
[1] = tested on: neofollicle germs in the wound area; experiment: Neofollicle germ formation after full thickness excision (FTE) in mice, counted by confocal imaging and AP staining; type: in vivo, C57BL6/J female mice
Method: A study was conducted to assess the degree to which valproic acid could stimulate growth of new hair follicles by in mice when applied after a full thickness excision (FTE) procedure. FTE creates a zone of hair follicles that are 100% newly formed and removes noise from other clouding factors (e.g., migration of pre-existing follicles into the wound) (e.g., as described in Ito et. al., Nature, May 2007, “Wnt-dependent de novo hair follicle regeneration in adult mouse skin after wounding”, the contents of which is herein incorporated by reference in its entirety). The study was conducted with 2 arms (1) vehicle control and (2) 8.3% valproic acid; n=21 mice per arm). Valproic acid or placebo was applied twice daily for 4 days following scab detachment. The resulting data was analyzed and compared to a vehicle compound control cohort.
Day-12 C57BL6/J female mice pups (Jackson Labs) were maintained in cages and fed a high fat diet until day of surgery. […] After 1 hour, the mice were injected with ketamine (70 mg/kg)-xylazine (8 mg/kg), assigned a Study ID, and weight was recorded. […]
The degree of neofollicle germ formation was measured in the wound area, using imaging by confocal microscopy (confocal scanning laser microscope (CSLM) (VivaScope 1500, Lucid Inc., Rochester, N.Y., USA) and counting the number of early hair follicles developing underneath the surface of the skin. […]

total hair counts = details: topical; male patients with androgenetic alopecia; Jo et al., Journal of Dermatology 2014; cited from earlier work

For `CCCC(CCC)C(=O)O` [Valproic Acid, 2-propylpentanoic acid], the “Number of neofollicles versus FTE + vehicle treated controls (in words)” value ([1]; FTE + VPA 8.3% topical twice daily for 4 days, mice) is given as “strong trend indicating increased numbers of neofollicles”, the “Mean count of neofollicles (Primary 1 + Primary 2 scoring categories)” value ([1]; FTE mice, 8.3% valproic acid in 50% ethanol/30% water/20% propylene glycol, topical 20 uL twice daily for 4 days after scab detachment, n=15, vehicle control 26.3 (n=21), one-tail P 0.066) is given as 37.1 and the “Total hair count (in words)” value (total hair counts) is given as “increase total hair counts”.
